According to ChEMBL document CHEMBL1255345, “Efficacies of ceftobiprole medocaril and comparators in a rabbit model of osteomyelitis due to methicillin-resistant Staphylococcus aureus” (Antimicrob Agents Chemother, 2008):
Converted amounts (≈) assume the structure as drawn. The source made the active and inactive calls. The rule behind the calls is not given here.

Assays:
Staphylococcus aureus [1] = assay: Antimicrobial activity against methicillin-resistant Staphylococcus aureus infected in New Zealand rabbit osteomyelitis model assessed as improvement in rate of bone reconstruction at 30 mg/kg, sc administered every 12 hrs for 4 weeks measured on week 2 postinfection radiographic analysis; assay type: functional, organism-based; design: dose 30 mg/kg
Staphylococcus aureus [2] = assay: Antimicrobial activity against methicillin-resistant Staphylococcus aureus infected in New Zealand rabbit osteomyelitis model assessed as improvement in extent of bone remodeling at 30 mg/kg, sc administered every 12 hrs for 4 weeks measured on week 2 postinfection radiographic analysis; assay type: functional, organism-based; design: dose 30 mg/kg
Staphylococcus aureus [3] = assay: Antimicrobial activity against methicillin-resistant Staphylococcus aureus infected in New Zealand rabbit osteomyelitis model assessed as improvement in rate of bone reconstruction at 30 mg/kg, sc administered every 12 hrs for 4 weeks measured on week 6 postinfection radiographic analysis; assay type: functional, organism-based; design: dose 30 mg/kg
Staphylococcus aureus [4] = assay: Antimicrobial activity against methicillin-resistant Staphylococcus aureus infected in New Zealand rabbit osteomyelitis model assessed as improvement in extent of bone remodeling at 30 mg/kg, sc administered every 12 hrs for 4 weeks measured on week 6 postinfection radiographic analysis; assay type: functional, organism-based; design: dose 30 mg/kg
Staphylococcus aureus [5] = assay: Antimicrobial activity against methicillin-resistant Staphylococcus aureus infected in New Zealand rabbit osteomyelitis model assessed as improvement in rate of bone reconstruction at 30 mg/kg, sc administered every 12 hrs for 4 weeks measured on week 8 postinfection radiographic analysis; assay type: functional, organism-based; design: dose 30 mg/kg
Staphylococcus aureus [6] = assay: Antimicrobial activity against Staphylococcus aureus 168-1 isolated from osteomyelitis patient by broth macrodilution method; assay type: functional
Staphylococcus aureus [7] = assay: (§1) Antimicrobial activity against methicillin-resistant Staphylococcus aureus infected in New Zealand rabbit osteomyelitis model assessed as bacterial count per gram of tibial matrix at 30 mg/kg, sc administered every 12 hrs for 4 weeks measured on week 8 postinfection (reference value: 1.04 +/- 2.63 CFU/g); assay type: functional; conditions: route subcutaneous
Staphylococcus aureus [8] = assay: as §1, with “marrow” for “matrix”, “1.12” for “1.04”, “10^9” for “2.63”; assay type: functional; conditions: route subcutaneous
[9] = Ratio of AUC to MIC in methicillin-resistant Staphylococcus aureus infected New Zealand rabbit model osteomyelitis at 30 mg/kg, sc administered every 12 hrs for 4 weeks; assay type: functional; conditions: route subcutaneous
[10] = Cmax in New Zealand rabbit osteomyelitis model at 40 mg/kg, sc administered every 6 hrs for 4 days; assay type: ADME, organism-based, Oryctolagus cuniculus; design: dose 40 mg/kg, route subcutaneous; conditions: in vivo
[11] = AUC in New Zealand rabbit osteomyelitis model at 40 mg/kg, sc administered every 6 hrs for 4 days; assay type: ADME, organism-based, Oryctolagus cuniculus; design: dose 40 mg/kg, route subcutaneous; conditions: in vivo
Staphylococcus aureus [12] = assay: Antimicrobial activity against methicillin-resistant Staphylococcus aureus infected in New Zealand rabbit osteomyelitis model assessed as improvement in extent of bone remodeling at 60 mg/kg, po administered every 8 hrs for 4 weeks measured on week 2 postinfection radiographic analysis; assay type: functional, organism-based; design: dose 60 mg/kg
Staphylococcus aureus [13] = assay: Antimicrobial activity against methicillin-resistant Staphylococcus aureus infected in New Zealand rabbit osteomyelitis model assessed as improvement in rate of bone reconstruction at 60 mg/kg, po administered every 8 hrs for 4 weeks measured on week 6 postinfection radiographic analysis; assay type: functional, organism-based; design: dose 60 mg/kg
Staphylococcus aureus [14] = assay: Antimicrobial activity against methicillin-resistant Staphylococcus aureus infected in New Zealand rabbit osteomyelitis model assessed as improvement in extent of bone remodeling at 60 mg/kg, po administered every 8 hrs for 4 weeks measured on week 6 postinfection radiographic analysis; assay type: functional, organism-based; design: dose 60 mg/kg
Staphylococcus aureus [15] = assay: Antimicrobial activity against methicillin-resistant Staphylococcus aureus infected in New Zealand rabbit osteomyelitis model assessed as improvement in rate of bone reconstruction at 60 mg/kg, po administered every 8 hrs for 4 weeks measured on week 8 postinfection radiographic analysis; assay type: functional, organism-based; design: dose 60 mg/kg
Staphylococcus aureus [16] = assay: Antimicrobial activity against methicillin-resistant Staphylococcus aureus infected in New Zealand rabbit osteomyelitis model assessed as improvement in extent of bone remodeling at 60 mg/kg, po administered every 8 hrs for 4 weeks measured on week 8 postinfection radiographic analysis; assay type: functional, organism-based; design: dose 60 mg/kg
Staphylococcus aureus [17] = assay: as §1, with “60” for “30”, “po” for “sc”, “8” for “12”; assay type: functional, organism-based; design: dose 60 mg/kg
Staphylococcus aureus [18] = assay: as §1, with “marrow” for “matrix”, “60” for “30”, “po” for “sc”, “8” for “12”; assay type: functional, organism-based; design: dose 60 mg/kg
Oryctolagus cuniculus [19] = assay: Cmin in New Zealand rabbit at 20 mg/kg, sc administered every 6 hrs for 4 days measured after 1 hr post first dose by RP-HPLC/MS/MS; assay type: ADME, organism-based; design: dose 20 mg/kg, route subcutaneous; conditions: in vivo, 1 h
[20] = AUC in methicillin-resistant Staphylococcus aureus-infected New Zealand rabbit osteomyelitis model at 60 mg/kg, po after 24 hrs; assay type: ADME, organism-based, Oryctolagus cuniculus; design: time < 24 hr, dose 60 mg/kg, route oral; conditions: in vivo
Oryctolagus cuniculus [21] = assay: Toxicity in methicillin-resistant Staphylococcus aureus-infected New Zealand rabbit osteomyelitis model assessed as body weight at 60 mg/kg, po administered every 8 hrs for 4 weeks measured on week 2 postinfection (reference value: 2.43 +/- 0.15 kg); conditions: in vivo
Oryctolagus cuniculus [22] = assay: Toxicity in methicillin-resistant Staphylococcus aureus-infected New Zealand rabbit osteomyelitis model assessed as body weight at 60 mg/kg, po administered every 8 hrs for 4 weeks measured on week 4 postinfection (reference value: 2.43 +/- 0.15 kg); conditions: in vivo
Oryctolagus cuniculus [23] = assay: Toxicity in methicillin-resistant Staphylococcus aureus-infected New Zealand rabbit osteomyelitis model assessed as body weight at 60 mg/kg, po administered every 8 hrs for 4 weeks measured on week 6 postinfection (reference value: 2.43 +/- 0.15 kg); conditions: in vivo
Oryctolagus cuniculus [24] = assay: Toxicity in methicillin-resistant Staphylococcus aureus-infected New Zealand rabbit osteomyelitis model assessed as body weight at 60 mg/kg, po administered every 8 hrs for 4 weeks measured on week 8 postinfection (reference value: 2.43 +/- 0.15 kg); conditions: in vivo

CN[C@H](CC(C)C)C(=O)N[C@H]1C(=O)N[C@@H](CC(N)=O)C(=O)N[C@H]2C(=O)N[C@H]3C(=O)N[C@H](C(=O)N[C@H](C(=O)O)c4cc(O)cc(O)c4-c4cc3ccc4O)[C@H](O)c3ccc(c(Cl)c3)Oc3cc2cc(c3O[C@@H]2O[C@H](CO)[C@@H](O)[C@H](O)[C@H]2O[C@H]2C[C@](C)(N)[C@H](O)[C@H](C)O2)Oc2ccc(cc2Cl)[C@H]1O [VANCOMYCIN]
Activity (Staphylococcus aureus [1]): Active | Activity (Staphylococcus aureus [2]): Active | Activity (Staphylococcus aureus [3]): Active | Activity (Staphylococcus aureus [4]): Active | Activity (Staphylococcus aureus [5]): Active | MBC (Staphylococcus aureus [6]): 6.25 µg/mL (≈ 4.31 µM) | MIC (Staphylococcus aureus [6]): 0.78 µg/mL (≈ 0.538 µM) | CFU (Staphylococcus aureus [7]): 0.84 ×10⁷ /g | CFU (Staphylococcus aureus [8]): 0.64 ×10⁹ /g | RatioAUC/MIC [9]: 148 | Cmax [10]: 6400 ng/mL | AUC [11]: 58 µg·h/mL

CC(=O)NC[C@H]1CN(c2ccc(N3CCOCC3)c(F)c2)C(=O)O1 [LINEZOLID]
Activity (Staphylococcus aureus [12]): Active | Activity (Staphylococcus aureus [13]): Active | Activity (Staphylococcus aureus [14]): Active | Activity (Staphylococcus aureus [15]): Active | Activity (Staphylococcus aureus [16]): Active | Activity (Staphylococcus aureus [17]): Active | Activity (Staphylococcus aureus [18]): Active | MBC (Staphylococcus aureus [6]): 12.5 µg/mL (≈ 37.1 µM) | MIC (Staphylococcus aureus [6]): 1.56 µg/mL (≈ 4.62 µM) | CFU (Oryctolagus cuniculus [19]): 0.18 ×10⁷ /g | Cmax [10]: 27200 ng/mL | AUC [11]: 173 µg·h/mL | AUC at 24 h [20]: 334 µg·h/mL | Activity (Oryctolagus cuniculus [21]): 2.35 kg | Activity (Oryctolagus cuniculus [22]): 2.44 kg | Activity (Oryctolagus cuniculus [23]): 2.36 kg | Activity (Oryctolagus cuniculus [24]): 2.42 kg
